According to ChEMBL document CHEMBL4507262, “Data for DCP probe A-1596586” (2021):

How the values were obtained:
[1] = biological target: D(3) dopamine receptor (Homo sapiens) (UniProt P35462); settings: Compound concentration 10.0 uM
[2] = biological target: Myosin-IIIa (Homo sapiens) (UniProt Q8NEV4); settings: Compound concentration 1000.0 nM
[3] = biological target: Epidermal growth factor receptor (Homo sapiens) (UniProt P00533); settings: Compound concentration 1000.0 nM
[4] = tested on: Receptor-type tyrosine-protein kinase FLT3 (Homo sapiens), P36888 [N841I]; settings: Compound concentration 1000.0 nM
[5] = biological target: Cyclin-dependent kinase 9 (Homo sapiens) (UniProt P50750); settings: Compound concentration 1000.0 nM
[6] = biological target: D(1A) dopamine receptor (Homo sapiens) (UniProt P21728); experiment: D1 (h) Eurofins-Cerep binding assay; parameters: ligand concentration 0.3 nM; settings: filed as antagonist, Compound concentration 10.0 uM
[7] = biological target: Acetylcholinesterase (Homo sapiens) (UniProt P22303); experiment: Acetylcholinesterase (h) Eurofins-Cerep enzyme and uptake assay; settings: Compound concentration 10.0 uM
[8] = biological target: Serine/threonine-protein kinase PAK 4 (Homo sapiens) (UniProt O96013); settings: Compound concentration 1000.0 nM
[9] = biological target: Transient receptor potential cation channel subfamily M member 6 (Homo sapiens) (UniProt Q9BX84); settings: Compound concentration 1000.0 nM
[10] = biological target: Wee1-like protein kinase (Homo sapiens) (UniProt P30291); settings: Compound concentration 1000.0 nM
[11] = biological target: Mitogen-activated protein kinase 11 (Homo sapiens) (UniProt Q15759); settings: Compound concentration 1000.0 nM
[12] = biological target: TRAF2 and NCK-interacting protein kinase (Homo sapiens) (UniProt Q9UKE5); settings: Compound concentration 1000.0 nM
[13] = biological target: MAO-A (amine oxidase [flavin-containing] A) (Rattus norvegicus, UniProt P21396); experiment: MAO-A Eurofins-Cerep binding assay; parameters: incubation time 60 min, incubation temperature 37°C, ligand concentration 10 nM; settings: rat cerebral cortex, probe [3H]Ro 41-1049 (10 nM), compound concentration 10 uM, read-out: % Inhibition of Control Specific Binding (Mean n=2)
[14] = biological target: Receptor-interacting serine/threonine-protein kinase 1 (Homo sapiens) (UniProt Q13546); settings: Compound concentration 1000.0 nM
[15] = biological target: Homeodomain-interacting protein kinase 4 (Homo sapiens) (UniProt Q8NE63); settings: Compound concentration 1000.0 nM
[16] = biological target: STE20/SPS1-related proline-alanine-rich protein kinase (Homo sapiens) (UniProt Q9UEW8); settings: Compound concentration 1000.0 nM
[17] = biological target: Serine/threonine-protein kinase Sgk1 (Homo sapiens) (UniProt O00141); settings: Compound concentration 1000.0 nM
[18] = tested on: Phosphatidylinositol 4,5-bisphosphate 3-kinase catalytic subunit alpha isoform (Homo sapiens), P42336 [Q546K]; settings: Compound concentration 1000.0 nM
[19] = biological target: MAP kinase-interacting serine/threonine-protein kinase 1 (Homo sapiens) (UniProt Q9BUB5); settings: Compound concentration 1000.0 nM
[20] = biological target: cGMP-inhibited 3',5'-cyclic phosphodiesterase 3A (Homo sapiens) (UniProt Q14432); experiment: PDE3A (h) Eurofins-Cerep enzyme and uptake assay; settings: Compound concentration 10.0 uM
[21] = biological target: Serine/threonine-protein kinase WNK2 (Homo sapiens) (UniProt Q9Y3S1); settings: Compound concentration 1000.0 nM
[22] = biological target: Mitogen-activated protein kinase 10 (Homo sapiens) (UniProt P53779); settings: Compound concentration 1000.0 nM
[23] = biological target: Atypical kinase COQ8B, mitochondrial (Homo sapiens) (UniProt Q96D53); settings: Compound concentration 1000.0 nM
[24] = tested on: Mast/stem cell growth factor receptor Kit (Homo sapiens), P10721 [L576P]; settings: Compound concentration 1000.0 nM
[25] = biological target: Serine/threonine-protein kinase 32A (Homo sapiens) (UniProt Q8WU08); settings: Compound concentration 1000.0 nM
[26] = biological target: Beta-2 adrenergic receptor (Homo sapiens) (UniProt P07550); experiment: Beta2 (h) Eurofins-Cerep binding assay; parameters: ligand concentration 0.3 nM; settings: filed as antagonist, Compound concentration 10.0 uM
[27] = biological target: Serine/threonine-protein kinase 17B (Homo sapiens) (UniProt O94768); settings: Compound concentration 1000.0 nM
[28] = biological target: Serine/threonine-protein kinase PLK4 (Homo sapiens) (UniProt O00444); settings: Compound concentration 1000.0 nM
[29] = tested on: Mast/stem cell growth factor receptor Kit (Homo sapiens), P10721 [V559D]; settings: Compound concentration 1000.0 nM
[30] = biological target: Ephrin type-A receptor 8 (Homo sapiens) (UniProt P29322); settings: Compound concentration 1000.0 nM
[31] = biological target: Estrogen receptor (Homo sapiens) (UniProt P03372); experiment: Estrogen ER alpha (h) Eurofins-Cerep binding assay; parameters: ligand concentration 0.5 nM; settings: filed as agonist, Compound concentration 10.0 uM
[32] = biological target: Cyclin-dependent kinase 2 homolog (Plasmodium falciparum (isolate 3D7)) (UniProt P61075); settings: Compound concentration 1000.0 nM
[33] = biological target: Serine/threonine-protein kinase TNNI3K (Homo sapiens) (UniProt Q59H18); settings: Compound concentration 1000.0 nM
[34] = biological target: Dual specificity mitogen-activated protein kinase kinase 1 (Homo sapiens) (UniProt Q02750); settings: Compound concentration 1000.0 nM
[35] = biological target: Phosphorylase b kinase gamma catalytic chain, skeletal muscle/heart isoform (Homo sapiens) (UniProt Q16816); settings: Compound concentration 1000.0 nM
[36] = biological target: Cyclin-dependent kinase-like 3 (Homo sapiens) (UniProt Q8IVW4); settings: Compound concentration 1000.0 nM
[37] = biological target: Bone morphogenetic protein receptor type-1A (Homo sapiens) (UniProt P36894); settings: Compound concentration 1000.0 nM
[38] = biological target: Cyclin-dependent kinase 19 (Homo sapiens) (UniProt Q9BWU1); settings: Compound concentration 1000.0 nM
[39] = biological target: Mitogen-activated protein kinase kinase kinase 5 (Homo sapiens) (UniProt Q99683); settings: Compound concentration 1000.0 nM
[40] = biological target: Epithelial discoidin domain-containing receptor 1 (Homo sapiens) (UniProt Q08345); settings: Compound concentration 1000.0 nM
[41] = biological target: 5-hydroxytryptamine receptor 2B (Homo sapiens) (UniProt P41595); experiment: 5-HT2B (h) Eurofins-Cerep binding assay; parameters: ligand concentration 0.2 nM; settings: filed as agonist, Compound concentration 10.0 uM
[42] = tested on: Receptor-type tyrosine-protein kinase FLT3 (Homo sapiens), P36888 [R834Q]; settings: Compound concentration 1000.0 nM
[43] = biological target: Non-receptor tyrosine-protein kinase TYK2 (Homo sapiens) (UniProt P29597); settings: Compound concentration 1000.0 nM

Sequence of Mitogen-activated protein kinase 10 (Homo sapiens) (P53779 whole entry): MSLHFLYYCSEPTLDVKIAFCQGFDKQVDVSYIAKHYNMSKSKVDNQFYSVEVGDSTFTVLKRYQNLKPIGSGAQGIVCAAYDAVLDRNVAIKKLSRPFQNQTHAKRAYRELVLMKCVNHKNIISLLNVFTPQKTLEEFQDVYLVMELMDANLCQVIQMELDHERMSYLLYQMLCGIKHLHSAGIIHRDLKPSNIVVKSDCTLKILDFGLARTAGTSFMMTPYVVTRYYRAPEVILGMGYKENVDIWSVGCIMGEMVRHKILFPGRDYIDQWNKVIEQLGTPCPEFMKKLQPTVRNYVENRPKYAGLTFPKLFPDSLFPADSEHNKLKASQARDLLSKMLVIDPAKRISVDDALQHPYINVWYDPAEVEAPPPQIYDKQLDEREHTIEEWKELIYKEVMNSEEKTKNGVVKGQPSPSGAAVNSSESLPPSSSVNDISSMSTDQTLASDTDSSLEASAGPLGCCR
Sequence of Epidermal growth factor receptor (Homo sapiens) (P00533 whole entry): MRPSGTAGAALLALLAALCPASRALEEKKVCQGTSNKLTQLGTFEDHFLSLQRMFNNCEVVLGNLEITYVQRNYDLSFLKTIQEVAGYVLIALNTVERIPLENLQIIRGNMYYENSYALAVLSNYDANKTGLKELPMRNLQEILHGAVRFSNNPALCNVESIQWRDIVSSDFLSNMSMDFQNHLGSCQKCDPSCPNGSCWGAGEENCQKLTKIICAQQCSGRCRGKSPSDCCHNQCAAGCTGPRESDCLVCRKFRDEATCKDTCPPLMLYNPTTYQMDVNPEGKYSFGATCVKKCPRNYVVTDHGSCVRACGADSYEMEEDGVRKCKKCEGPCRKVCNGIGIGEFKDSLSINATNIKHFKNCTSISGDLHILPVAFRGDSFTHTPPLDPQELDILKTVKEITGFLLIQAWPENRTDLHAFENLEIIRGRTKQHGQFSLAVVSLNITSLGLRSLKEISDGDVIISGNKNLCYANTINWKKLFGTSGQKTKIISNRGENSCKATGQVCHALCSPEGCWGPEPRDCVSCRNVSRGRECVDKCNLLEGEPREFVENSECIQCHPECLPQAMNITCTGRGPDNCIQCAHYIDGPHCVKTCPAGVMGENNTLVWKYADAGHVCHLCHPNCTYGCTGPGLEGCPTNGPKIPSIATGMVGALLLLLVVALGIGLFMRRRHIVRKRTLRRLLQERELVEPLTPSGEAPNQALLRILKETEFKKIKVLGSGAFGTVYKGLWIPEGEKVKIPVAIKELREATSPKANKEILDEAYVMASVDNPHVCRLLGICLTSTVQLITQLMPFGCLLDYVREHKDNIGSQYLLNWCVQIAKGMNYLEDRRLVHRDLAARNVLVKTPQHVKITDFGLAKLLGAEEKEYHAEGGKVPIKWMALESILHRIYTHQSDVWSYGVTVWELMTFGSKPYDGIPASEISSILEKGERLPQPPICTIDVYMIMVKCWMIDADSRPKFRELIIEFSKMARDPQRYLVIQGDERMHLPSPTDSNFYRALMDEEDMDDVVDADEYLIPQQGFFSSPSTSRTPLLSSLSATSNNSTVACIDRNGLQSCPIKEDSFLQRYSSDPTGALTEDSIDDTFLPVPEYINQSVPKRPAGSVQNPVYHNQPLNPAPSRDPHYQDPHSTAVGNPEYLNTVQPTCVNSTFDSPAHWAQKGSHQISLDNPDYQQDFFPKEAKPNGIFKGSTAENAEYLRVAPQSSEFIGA
Sequence of Bone morphogenetic protein receptor type-1A (Homo sapiens) (P36894 whole entry): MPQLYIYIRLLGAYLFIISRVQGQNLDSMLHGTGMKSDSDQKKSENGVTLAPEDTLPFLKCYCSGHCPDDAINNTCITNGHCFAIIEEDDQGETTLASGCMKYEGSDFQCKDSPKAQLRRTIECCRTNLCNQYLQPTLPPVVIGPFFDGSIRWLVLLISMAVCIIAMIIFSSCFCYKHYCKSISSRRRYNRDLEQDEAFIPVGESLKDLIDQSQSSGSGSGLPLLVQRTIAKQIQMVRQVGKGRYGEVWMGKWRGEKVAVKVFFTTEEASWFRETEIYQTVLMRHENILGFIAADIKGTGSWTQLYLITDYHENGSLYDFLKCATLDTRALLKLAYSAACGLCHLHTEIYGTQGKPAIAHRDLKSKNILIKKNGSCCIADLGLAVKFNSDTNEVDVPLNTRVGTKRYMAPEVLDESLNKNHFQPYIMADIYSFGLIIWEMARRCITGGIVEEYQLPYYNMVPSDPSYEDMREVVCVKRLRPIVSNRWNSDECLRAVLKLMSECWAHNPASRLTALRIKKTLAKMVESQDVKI
Sequence of Serine/threonine-protein kinase Sgk1 (Homo sapiens) (O00141 whole entry, canonical isoform): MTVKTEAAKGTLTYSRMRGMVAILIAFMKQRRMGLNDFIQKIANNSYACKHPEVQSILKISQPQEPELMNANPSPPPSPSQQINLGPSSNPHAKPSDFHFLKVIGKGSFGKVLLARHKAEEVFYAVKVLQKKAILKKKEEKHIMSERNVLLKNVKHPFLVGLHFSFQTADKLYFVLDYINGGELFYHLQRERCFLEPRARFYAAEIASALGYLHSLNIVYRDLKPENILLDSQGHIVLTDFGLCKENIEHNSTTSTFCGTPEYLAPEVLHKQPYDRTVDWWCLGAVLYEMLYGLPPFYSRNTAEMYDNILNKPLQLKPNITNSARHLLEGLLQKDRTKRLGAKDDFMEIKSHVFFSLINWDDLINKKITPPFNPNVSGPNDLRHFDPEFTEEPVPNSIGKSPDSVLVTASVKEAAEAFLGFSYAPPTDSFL
Sequence of Cyclin-dependent kinase 19 (Homo sapiens) (Q9BWU1 whole entry): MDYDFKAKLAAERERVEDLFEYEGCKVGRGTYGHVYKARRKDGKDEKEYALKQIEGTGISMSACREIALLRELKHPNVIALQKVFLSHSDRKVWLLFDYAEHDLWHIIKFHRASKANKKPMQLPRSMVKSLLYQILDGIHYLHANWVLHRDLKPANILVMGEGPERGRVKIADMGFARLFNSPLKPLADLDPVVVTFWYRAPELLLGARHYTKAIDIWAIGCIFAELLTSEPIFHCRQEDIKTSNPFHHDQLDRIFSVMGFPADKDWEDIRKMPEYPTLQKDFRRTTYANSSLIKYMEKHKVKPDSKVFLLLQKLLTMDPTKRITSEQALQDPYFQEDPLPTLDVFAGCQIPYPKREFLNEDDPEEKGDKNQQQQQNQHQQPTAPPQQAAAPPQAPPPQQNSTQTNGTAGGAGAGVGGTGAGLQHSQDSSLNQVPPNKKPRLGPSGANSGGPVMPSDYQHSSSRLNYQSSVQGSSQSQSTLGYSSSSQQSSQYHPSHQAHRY
Sequence of Serine/threonine-protein kinase PLK4 (Homo sapiens) (O00444 whole entry): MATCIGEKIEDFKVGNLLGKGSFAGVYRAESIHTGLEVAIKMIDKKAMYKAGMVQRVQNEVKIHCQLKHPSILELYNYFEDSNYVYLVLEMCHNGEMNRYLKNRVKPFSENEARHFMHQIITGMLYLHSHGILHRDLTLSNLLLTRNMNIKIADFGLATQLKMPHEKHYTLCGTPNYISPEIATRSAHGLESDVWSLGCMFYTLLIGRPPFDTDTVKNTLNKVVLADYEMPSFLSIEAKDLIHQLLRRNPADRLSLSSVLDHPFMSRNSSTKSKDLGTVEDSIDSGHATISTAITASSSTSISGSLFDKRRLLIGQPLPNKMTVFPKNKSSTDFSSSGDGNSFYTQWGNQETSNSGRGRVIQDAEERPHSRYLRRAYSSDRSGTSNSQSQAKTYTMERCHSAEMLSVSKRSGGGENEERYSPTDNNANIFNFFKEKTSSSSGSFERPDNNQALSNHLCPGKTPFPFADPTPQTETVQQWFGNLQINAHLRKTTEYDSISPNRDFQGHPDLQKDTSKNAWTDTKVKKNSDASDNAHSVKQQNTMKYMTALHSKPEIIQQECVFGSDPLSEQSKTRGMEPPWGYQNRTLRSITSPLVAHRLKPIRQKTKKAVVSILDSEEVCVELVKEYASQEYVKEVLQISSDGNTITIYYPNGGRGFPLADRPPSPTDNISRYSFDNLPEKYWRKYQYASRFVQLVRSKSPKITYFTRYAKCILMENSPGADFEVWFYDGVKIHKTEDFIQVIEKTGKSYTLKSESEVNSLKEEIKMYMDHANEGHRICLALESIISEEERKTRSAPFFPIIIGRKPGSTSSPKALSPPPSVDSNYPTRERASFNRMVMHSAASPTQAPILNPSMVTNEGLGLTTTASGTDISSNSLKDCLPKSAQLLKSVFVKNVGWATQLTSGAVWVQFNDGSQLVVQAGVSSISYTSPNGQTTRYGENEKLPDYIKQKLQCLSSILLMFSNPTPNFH
Sequence of Cyclin-dependent kinase 2 homolog (Plasmodium falciparum (isolate 3D7)) (P61075 whole entry): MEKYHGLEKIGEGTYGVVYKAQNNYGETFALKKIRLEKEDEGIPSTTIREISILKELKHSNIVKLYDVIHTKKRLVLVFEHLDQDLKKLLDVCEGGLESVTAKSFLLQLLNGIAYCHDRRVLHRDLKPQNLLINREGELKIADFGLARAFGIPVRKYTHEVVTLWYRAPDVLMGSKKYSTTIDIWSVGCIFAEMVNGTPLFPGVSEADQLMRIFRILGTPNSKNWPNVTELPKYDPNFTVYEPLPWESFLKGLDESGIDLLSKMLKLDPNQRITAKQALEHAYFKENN
Sequence of Homeodomain-interacting protein kinase 4 (Homo sapiens) (Q8NE63 whole entry): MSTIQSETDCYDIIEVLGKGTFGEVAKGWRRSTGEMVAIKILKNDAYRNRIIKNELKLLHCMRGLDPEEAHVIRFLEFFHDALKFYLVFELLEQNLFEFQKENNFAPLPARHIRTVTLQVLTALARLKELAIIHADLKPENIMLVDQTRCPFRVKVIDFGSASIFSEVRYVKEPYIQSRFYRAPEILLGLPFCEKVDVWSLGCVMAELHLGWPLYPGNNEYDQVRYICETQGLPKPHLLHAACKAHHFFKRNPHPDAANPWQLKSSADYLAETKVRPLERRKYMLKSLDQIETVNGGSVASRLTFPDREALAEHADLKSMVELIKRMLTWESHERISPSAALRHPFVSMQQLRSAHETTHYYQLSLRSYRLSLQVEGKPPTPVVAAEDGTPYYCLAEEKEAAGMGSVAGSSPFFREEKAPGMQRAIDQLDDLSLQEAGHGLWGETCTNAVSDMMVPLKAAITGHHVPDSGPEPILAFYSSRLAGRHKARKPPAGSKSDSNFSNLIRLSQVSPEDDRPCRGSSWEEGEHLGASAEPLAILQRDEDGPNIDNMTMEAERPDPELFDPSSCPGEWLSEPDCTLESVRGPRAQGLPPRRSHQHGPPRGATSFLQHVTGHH

How did the inhibition [1] turn out when COc1ccc2c(c1)O[C@@H](c1ccc(OC)c(OC)c1)C[C@H]2NC(=O)C1(c2ccc3c(c2)OC(F)(F)O3)CC1 [A-1596586] was run?
Its inhibition is -1.53%.

And the residual activity [2]?
Its residual activity is 93%.

And the residual activity [3]?
The residual activity was 96%.

What about the residual activity [4] of the same compound?
Its residual activity is 100%.

What about the residual activity [5] of the same compound?
The residual activity was 89%.

What about the % Inhibition of Control Specific Binding (Mean n=2) [6] of the same compound?
The % Inhibition of Control Specific Binding (Mean n=2) was 14%.

And the % Inhibition of Control Values (Mean n=2) [7]?
Its % Inhibition of Control Values (Mean n=2) is -6.2%.

And the residual activity [8]?
The residual activity was 89%.

And the residual activity [9]?
The residual activity was 82%.

And the residual activity [10]?
Its residual activity is 99%.

And the residual activity [11]?
Its residual activity is 92%.

And the residual activity [12]?
The residual activity was 71%.

What about the inhibition at 60 min, 10 µM [13] of the same compound?
Its inhibition at 60 min, 10 µM is -1.1%.

And the residual activity [14]?
Its residual activity is 93%.

And the residual activity [15]?
The residual activity was 51%.

What about the residual activity [16] of the same compound?
Its residual activity is 71%.

And the residual activity [17]?
Its residual activity is 85%.

And the residual activity [18]?
The residual activity was 78%.

What about the residual activity [19] of the same compound?
Its residual activity is 78%.

What about the % Inhibition of Control Values (Mean n=2) [20] of the same compound?
Its % Inhibition of Control Values (Mean n=2) is 1.2%.

What about the residual activity [21] of the same compound?
The residual activity was 84%.

And the residual activity [22]?
The residual activity was 99%.

What about the residual activity [23] of the same compound?
Its residual activity is 100%.

And the residual activity [24]?
The residual activity was 92%.

And the residual activity [25]?
The residual activity was 100%.

And the % Inhibition of Control Specific Binding (Mean n=2) [26]?
Its % Inhibition of Control Specific Binding (Mean n=2) is 7%.

And the residual activity [27]?
The residual activity was 100%.

And the residual activity [28]?
Its residual activity is 84%.

What about the residual activity [29] of the same compound?
Its residual activity is 86%.

What about the residual activity [30] of the same compound?
Its residual activity is 82%.

What about the % Inhibition of Control Specific Binding (Mean n=2) [31] of the same compound?
The % Inhibition of Control Specific Binding (Mean n=2) was 2.9%.

What about the residual activity [32] of the same compound?
The residual activity was 84%.

And the residual activity [33]?
The residual activity was 100%.

And the residual activity [34]?
The residual activity was 86%.

What about the residual activity [35] of the same compound?
Its residual activity is 100%.

And the residual activity [36]?
The residual activity was 94%.

What about the residual activity [37] of the same compound?
The residual activity was 92%.

And the residual activity [38]?
The residual activity was 93%.

What about the residual activity [39] of the same compound?
The residual activity was 94%.

And the residual activity [40]?
Its residual activity is 100%.

And the % Inhibition of Control Specific Binding (Mean n=2) [41]?
The % Inhibition of Control Specific Binding (Mean n=2) was 8.5%.

What about the residual activity [42] of the same compound?
Its residual activity is 100%.

And the residual activity [43]?
Its residual activity is 65%.

For COc1ccc2c(c1)O[C@H](c1ccc(OC)c(OC)c1)C[C@@H]2NC(=O)C1(c2ccc3c(c2)OC(F)(F)O3)CC1 [A-1596584], which inhibition [1] is on record?
Its inhibition is -9.23%.

And the residual activity [2]?
The residual activity was 100%.

What about the residual activity [3] of the same compound?
Its residual activity is 92%.

And the residual activity [4]?
Its residual activity is 100%.

What about the residual activity [5] of the same compound?
The residual activity was 78%.

What about the % Inhibition of Control Specific Binding (Mean n=2) [6] of the same compound?
Its % Inhibition of Control Specific Binding (Mean n=2) is 7.4%.

What about the % Inhibition of Control Values (Mean n=2) [7] of the same compound?
Its % Inhibition of Control Values (Mean n=2) is -3.9%.

What about the residual activity [8] of the same compound?
Its residual activity is 100%.

And the residual activity [9]?
The residual activity was 84%.

And the residual activity [10]?
Its residual activity is 100%.

And the residual activity [11]?
Its residual activity is 93%.

And the residual activity [12]?
The residual activity was 100%.

And the inhibition at 60 min, 10 µM [13]?
Its inhibition at 60 min, 10 µM is 6.4%.

What about the residual activity [14] of the same compound?
Its residual activity is 100%.

What about the residual activity [15] of the same compound?
The residual activity was 91%.

What about the residual activity [16] of the same compound?
The residual activity was 100%.

And the residual activity [17]?
The residual activity was 100%.

What about the residual activity [18] of the same compound?
The residual activity was 100%.

And the residual activity [19]?
The residual activity was 81%.

And the % Inhibition of Control Values (Mean n=2) [20]?
The % Inhibition of Control Values (Mean n=2) was -2.1%.

What about the residual activity [21] of the same compound?
Its residual activity is 85%.

And the residual activity [22]?
Its residual activity is 100%.

What about the residual activity [23] of the same compound?
The residual activity was 63%.

And the residual activity [24]?
Its residual activity is 100%.

And the residual activity [25]?
The residual activity was 100%.

What about the % Inhibition of Control Specific Binding (Mean n=2) [26] of the same compound?
Its % Inhibition of Control Specific Binding (Mean n=2) is 11.6%.

And the residual activity [27]?
The residual activity was 100%.

What about the residual activity [28] of the same compound?
Its residual activity is 89%.

What about the residual activity [29] of the same compound?
Its residual activity is 100%.

And the residual activity [30]?
The residual activity was 100%.

And the % Inhibition of Control Specific Binding (Mean n=2) [31]?
Its % Inhibition of Control Specific Binding (Mean n=2) is -4%.

What about the residual activity [32] of the same compound?
Its residual activity is 92%.

And the residual activity [33]?
Its residual activity is 100%.

What about the residual activity [34] of the same compound?
The residual activity was 100%.

And the residual activity [35]?
Its residual activity is 100%.

And the residual activity [36]?
The residual activity was 97%.

What about the residual activity [37] of the same compound?
The residual activity was 98%.

And the residual activity [38]?
Its residual activity is 94%.

What about the residual activity [39] of the same compound?
The residual activity was 100%.

What about the residual activity [40] of the same compound?
Its residual activity is 100%.

And the % Inhibition of Control Specific Binding (Mean n=2) [41]?
The % Inhibition of Control Specific Binding (Mean n=2) was -14.6%.

What about the residual activity [42] of the same compound?
The residual activity was 100%.

What about the residual activity [43] of the same compound?
The residual activity was 85%.
